Each structure is given as a SMILES string. Where two headings read alike, the source gives them in different places.

Consider nine molecules from patent US7906551B2 (Rottapharm S.p.A., priority 2006, dated 2011).

For series [1], the system named is rat model of edema induced by carragenine. Nature of the series: Carrageenan-induced paw edema. The format is in vivo. To be noted: 1 h, 60 min, read-out: Edema inhibition 60 min, MPE. As to the method: (§1) Male Swiss albino mice (23-25 g) and Sprague Dawley or Wistar rats (150-200 g) were used. The animals were fed a standard laboratory diet and tap water ad libitum and kept at 23±1° C. with a 12 h light/dark cycle, light on at 7 a.m.
Rats paw volumes were measured using a plethysmometer. Rats received the investigated compounds 4 hours after a 0.1-ml injection of 1.0% carrageenan in the right hind paw. Five hours after the injection of carrageenan (i.e. 1 hour after the administration of the investigated compound), the paw volume of the right hind paw was measured and compared with saline/carrageenan-treated controls. Results are reported as maximum percent effect (MPE), see below for detailed explanation.
Background: Carrageenan injected into the paw causes an acute inflammation.

For the next series, the target named is T1, COX-2 (Mus musculus, UniProt Q05769).
T1 construct: lipopolysaccharide (LPS, 10 μg/mL) to induce COX-2; endogenous in cells; host or cells: J774 murine monocyte/macrophage cell line, LPS-stimulated
T1 sequence (Q05769 18-604): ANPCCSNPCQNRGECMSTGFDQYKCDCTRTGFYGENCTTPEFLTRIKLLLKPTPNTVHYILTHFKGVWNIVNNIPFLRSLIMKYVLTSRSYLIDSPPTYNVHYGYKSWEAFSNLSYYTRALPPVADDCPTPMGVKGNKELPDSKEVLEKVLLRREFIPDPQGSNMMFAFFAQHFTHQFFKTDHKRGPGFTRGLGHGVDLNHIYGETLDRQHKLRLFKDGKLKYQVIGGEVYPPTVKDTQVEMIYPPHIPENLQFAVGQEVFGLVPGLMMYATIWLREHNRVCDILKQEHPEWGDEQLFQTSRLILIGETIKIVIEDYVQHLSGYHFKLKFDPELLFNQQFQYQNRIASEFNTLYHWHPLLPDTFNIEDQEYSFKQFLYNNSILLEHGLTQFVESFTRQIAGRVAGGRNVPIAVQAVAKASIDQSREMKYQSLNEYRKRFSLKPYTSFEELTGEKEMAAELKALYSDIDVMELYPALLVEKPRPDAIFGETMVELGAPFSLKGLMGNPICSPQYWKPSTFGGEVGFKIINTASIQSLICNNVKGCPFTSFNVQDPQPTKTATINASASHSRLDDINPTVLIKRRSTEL
Nature of the series: Assessment of COX-2 activity in LPS-stimulated J774 cells (PGE2 radioimmunoassay). The format is cell-based, murine. Conditions: for COX-1/COX-2 Selectivity Index (IC50 ratio): Table 2, Formula Ia. As to the method: Cells were stimulated for 24 h with E. coli lipopolysaccharide (LPS, 10 μg/mL) to induce COX-2, in the absence or presence of test compounds, at the concentrations previously reported. The supernatants were collected for the measurement of PGE2 by radioimmunoassay.
Analysis. Throughout the time the experiments lasted, triplicate wells were used for the various conditions of treatment. Results are expressed as the mean, for 3 experiments, of the % inhibition of PGE2 production by test compounds with respect to control samples. Data fit was obtained using the sigmoidal dose-response equation (variable slope). The IC50 were calculated by GraphPad Instat program (GraphPad software).

Series [2] has as its system rat model of hyperalgesia induced by carragenine. Nature of the series: Paw pressure test, hyperalgesia induced by carragenine. The format is in vivo. How it is done: as §1
The nociceptive threshold in the rat was determined with an analgesimeter, according to the method described by Leighton et al, G. E.; Br. J. Pharmacol. 1988, 93, 553-560. Threshold pressure was measured before and 30, 60 and 120 min after treatment. An arbitrary cut-off value of 250 g was adopted. In order to induce an inflammatory process in the rat paw carrageenan (0.1 ml, 1%) was administered i.p. 4 h before test.

The subject of series [3] is mouse abdominal constriction (writhing). Nature of the series: Mouse abdominal constriction test (acetic acid 0.6%), writhing test. The format is in vivo. To be noted: mice, 30 min before test, control 38.1 ± 2.6. How it is done: as §1
Mice were injected i.p. with a 0.6% solution of acetic acid (10 ml/kg), according to Koster et al. Fed. Proc., 1959, 18, 412. The number of stretching movements was counted for 10 min, starting 5 min after acetic acid injection.

The subject of series [4] is rat model of edema induced by Zymosan. Nature of the series: Zymosan-induced paw edema. The format is in vivo. Conditions: oral. How it is done:
as §1
(§2) The interplantar injection of Zymosan-induced mechanical hyperalgesia may be used as a model of inflammatory pain (Meller, Neuropharmacology, 1994, 33, 1471-1478). In this model, typically a male Sprague-Dawely or Wistar rat (200-250 g) receives an interplantar injection of 4 mg/100 μl zymosan into one hind paw. A marked inflammation occurs in this hind paw. Drugs are administered orally for evaluation of efficacy, 30 min. before the inflammatory insult. The hyperalgesia induced by zymosan administration was evaluated using the Randal-Selitto method (Arch. Int. Pharmacodyn., 1957, 111, 409). The quantitation of the analgesic effect is achieved by an analgesimeter, which consist in applying to the inflamed paw an increasing weight (from 130-140 g up to 500 g). The difference in the mechanical pain threshold between the basal value (generally 230-250 g) and the one tolerated by the animals treated with the drug, determined 4 hours after the inflammatory challenge, is defined as mechanical hyperalgesia.
In vivo anti-inflammatory effect exerted by the compounds of the invention can be assessed in the same Zymosan induced inflammation test described above, by measuring the volume of the oedema induced by the inflammatory agent. The oedema was evaluated as the increase in the volume of the Zymosan injected paw within a time of 0-2 hrs. The measurements of the variation of the oedema volume of the paw were recorded using hydroplethysmometer. Results are expressed as MPE, maximum percent effect, that in this case represents the reduction (%) in the oedema of treated animals in comparison to controls (animals treated with Zymosan, which received only the vehicle).

In series [5] the test system is rat model of hyperalgesia induced by Zymosan. Nature of the series: Zymosan-induced hyperalgesia (Randal-Selitto). The format is in vivo. To be noted: oral. As to the method: as §1, §2
Mechanical hyperalgesia is expressed for the compounds of the invention as maximum percent effect (MPE) which represents the difference (%) in pain threshold between the animals treated with the drug and the controls that received only the vehicle.
Results are reported as MPE (reduction of the nociceptive effect, due to paw loading with increasing weight, in comparison to controls). 100% MPE means that the animal treated with the compound and Zymosan can tolerate the same stimulus (weight) as the control animals which have not received Zymosan treatment. MPE higher than 100% mean that the animal treated with the compound and Zymosan can tolerate stimuli (weight) higher than the control animals, which has not received Zymosan treatment (hypoalgesia).

A further series has as its system low-density lipoprotein. To be noted: cited from earlier work.
The conditions of series [6]: VIGOR trial; cited from earlier work.
A further series has as its system glaucomatous rabbits. Conditions: not COX-2 dependent effect; cited from earlier work.
The conditions of series [7]: study whether Celecoxib could treat AD; cited from earlier work.
[8] abbreviates: 0.5 h, 30 min, read-out: Analgesia 30 min MPE.
The mark [9] stands for this setting: 1 h, 60 min, read-out: Analgesia 60 min MPE.

As for `CCCCOC(=O)Cc1cc(-c2ccc(S(C)(=O)=O)cc2)n(-c2ccc(F)c(F)c2)c1C` [Example 5, n-Butyl[1-(3,4-difluoro)phenyl-2-methyl-5-(4-methylsulphonyl)phenyl-1H-pyrrol-3-yl]acetate], the melting point (as a rule, the temperature, or range, at which the solid turns liquid) amounted to 112 °C. In addition, in [1], the inhibition in vivo at 20 mg/kg was 74%. Moreover, the “COX-1/COX-2 Selectivity Index (IC50 ratio)” value at COX-2 is recorded as greater than 3300. Also, the inhibition in vivo at 20 mg/kg in [2] (setting [8]) is 76%. In addition, in series [2] (setting [9]), the inhibition in vivo at 20 mg/kg amounted to 100%. The Number of writhes in [3] (20 mg/Kg s.c.) is reported as 13.7 ± 4.0.
On to `CCOC(=O)Cc1cc(-c2ccc(S(C)(=O)=O)cc2)n(-c2ccc(F)c(F)c2)c1C` [Compound 5b, Ethyl 2-[1-(3,4-difluoro)phenyl-2-methyl-5-(4-methylsulphonyl)phenyl-1H-pyrrol-3-yl]acetate, reference compound], for which the inhibition in vivo at 20 mg/kg in [1] came to 30%; in series [2] (setting [8]), 30%; in series [2] (setting [9]), 36%. At COX-2, this molecule yielded a selectivity greater than 5000. In addition, the concentration for half-maximal inhibition (IC50) – broadly, the concentration that gives 50% inhibition – on COX-2 (read-out: in vitro COX-2 inhibitory potency IC50) was 20 nM. The “Edema 0-2 hrs MPE” value in series [4] (4 mg/Kg) stood at 8%. Moreover, in series [4] (4 mg/Kg), the “Edema 0-6 hrs MPE” value amounted to 6%. Also, the “Analgesia 0-2 hrs MPE” value in series [5] (4 mg/Kg) was determined as 9%. For the same molecule, in series [5] (4 mg/Kg), the “Analgesia 0-6 hrs MPE” value was determined as 12%.
Molecule `Cc1c(CC(=O)OC(C)C)cc(-c2ccc(S(C)(=O)=O)cc2)n1-c1ccccc1` [Example 1, Isopropyl[2-methyl-5-(4-methylsulphonyl)phenyl-1-phenyl-1H-pyrrol-3-yl]acetate] came in with a melting point of 160 °C. The inhibition in vivo at 5 mg/kg in series [1] (5 mg/Kg) is 100%. Moreover, in series [4] (3 mg/Kg), the “Edema 0-2 hrs MPE” value amounted to 20% and the “Edema 0-6 hrs MPE” value is given as 15%. Moreover, in series [5] (3 mg/Kg), the “Analgesia 0-2 hrs MPE” value stood at 75% and the “Analgesia 0-6 hrs MPE” value was found to be 70%. Also, the inhibition in vivo at 5 mg/kg in series [2] (setting [8]) is 80%. The inhibition in vivo at 5 mg/kg in series [2] (setting [9]) is 60%. The molecule also showed a Number of writhes in series [3] (5 mg/Kg s.c.) of 28.5 ± 3.3.
As to `CS(=O)(=O)c1ccc(C2=C(c3ccccc3)C(=O)OC2)cc1` [Rofecoxib], the “susceptibility of low-density lipoprotein to oxidative modifications” value with low-density lipoprotein is reported as “increases susceptibility”. In [6], the “incidence of acute myocardial infarction, Rofecoxib arm compared with the Naproxen arm” value is on record as “five-fold increase”. In the series on glaucomatous rabbits, the “effect on intraocular pressure” value is given as “had no effect”. Further, the “COX-1/COX-2 Selectivity Index (IC50 ratio)” value at COX-2 is given as greater than 800.
In turn, `COc1ccc(-n2c(-c3ccc(S(C)(=O)=O)cc3)cc(CC(=O)OC(C)C)c2C)cc1` [Example 3, Isopropyl[1-(4-methoxy)phenyl-2-methyl-5-(4-methylsulphonyl)phenyl-1H-pyrrol-3-yl]acetate] yielded a melting point of 138 °C. Besides, the inhibition in vivo at 20 mg/kg in [1] came out at 77%. For the same molecule, the “COX-1/COX-2 Selectivity Index (IC50 ratio)” value on COX-2 is given as greater than 4500. Also, the inhibition in vivo at 20 mg/kg in series [2] (setting [8]) is 67%. Moreover, in series [2] (setting [9]), the inhibition in vivo at 20 mg/kg came to 90%. This molecule also returned a Number of writhes in [3] (20 mg/Kg s.c.) of 18.5 ± 3.5.
For `Cc1ccc(-c2cc(C(F)(F)F)nn2-c2ccc(S(N)(=O)=O)cc2)cc1` [Celecoxib], the “susceptibility of low-density lipoprotein to oxidative modifications” value in the series with low-density lipoprotein is on record as “had no effect”. In addition, the inhibition in vivo at 20 mg/kg in series [1] is 95%; in series [2] (setting [8]), 73%; in series [2] (setting [9]), 81%. Moreover, the “Edema 0-6 hrs MPE” value in series [4] (3 mg/Kg) is listed as 24.8%. Moreover, the “Analgesia 0-2 hrs MPE” value in [5] (3 mg/Kg) amounted to 30%. Moreover, the “Analgesia 0-6 hrs MPE” value in [5] (3 mg/Kg) came to 35%. In addition, the “incidence of heart attack in the treated group in comparison to placebo” value in series [7] is recorded as “four times higher”.
Consider `Cc1c(CC(=O)OC(C)C)cc(-c2ccc(S(C)(=O)=O)cc2)n1-c1cccc(F)c1` [Example 4, Isopropyl[1-(3-fluoro)phenyl-2-methyl-5-(4-methylsulphonyl)phenyl-1H-pyrrol-3-yl]acetate], for which the melting point stood at 100 °C. Further, the inhibition in vivo at 20 mg/kg in series [1] was determined as 87%. For the same molecule, the “COX-1/COX-2 Selectivity Index (IC50 ratio)” value at COX-2 was greater than 2300. Besides, the inhibition in vivo at 20 mg/kg in series [2] (setting [8]) amounted to 84%. For the same molecule, the inhibition in vivo at 20 mg/kg in [2] (setting [9]) was found to be 80%. Besides, in series [3] (20 mg/Kg s.c.), the Number of writhes is 17.7 ± 2.9.
`Cc1onc(-c2ccccc2)c1-c1ccc(S(N)(=O)=O)cc1` [Valdecoxib]: the “effect on intraocular pressure” value in the series with glaucomatous rabbits was “reduce intraocular pressure”.
Take `Cc1c(CC(=O)OC(C)C)cc(-c2ccc(S(C)(=O)=O)cc2)n1-c1ccc(F)c(F)c1` [Example 2, Isopropyl[1-(3,4-difluoro)phenyl-2-methyl-5-(4-methylsulphonyl)phenyl-1H-pyrrol-3-yl]acetate]: the melting point turned out to be 143 °C. For the same molecule, the inhibition in vivo at 20 mg/kg in [1] was determined as 91%. For the same molecule, the “COX-1/COX-2 Selectivity Index (IC50 ratio)” value on COX-2 is given as greater than 4700. Also, the inhibition in vivo at 20 mg/kg in series [2] (setting [8]) stood at 100%. Also, the inhibition in vivo at 20 mg/kg in series [2] (setting [9]) stood at 70%. This molecule displayed a Number of writhes in [3] (20 mg/Kg s.c.) of 21.5 ± 3.9.
